Test results reported in patent US20160160189A1, “Truncated Constructs of RIPK3 and Related Uses” (ST. JUDE CHILDREN'S RESEARCH HOSPITAL, priority 2013, published 2016).
Peptide text beside a SMILES is read from it. * marks the point of attachment. Cbz = O=C(OCc1ccccc1)*; CH2F = FC*

Assays:
Assay type in all cases: cell-based, murine
[1] = test system: RIPK3 necrosome complex (RIPK1, caspase-8); assay: Anti-FLAG immunoprecipitation of necrosome complexes; settings: RIPK3-1xFv, AP1 30 minutes; zVAD 50 μM, Nec1 30 μM
Procedure: Immunoprecipitation of necrosome complexes were carried out using rabbit anti-FLAG antibodies, and TruBlot IP reagents (Rockland Immunochemicals) to eliminate non-specific signals from immunoglobulin heavy and light chains. Briefly, cell lines were treated as indicated and lysed in NP40 buffer (30 mM Tris, 150 mM NaCl, and 1% NP40) supplemented with protease inhibitors. Twenty micrograms of each sample were reserved for “input,” while 500 μg of total protein from each sample were immunoprecipitated with 0.5 μg antibody conjugated to 30 μL TruBlot anti-Rabbit IgG beads Immunocomplexes were washed 4 times in NP40 buffer, eluted by boiling, then run on western blot. Western blots were analyzed using standard primary antibodies, but TruBlot anti-Rabbit and anti-Mouse HRP-conjugated 14 secondary antibodies were used. A standard anti-Rat-HRP secondary was used to detect caspase-8.

[2] = test system: RIPK3 complexes; assay: DSS crosslinking of necrosome complexes resolved by western blotting; settings: 30 nM AP1; zVAD 50 μM, Nec1 30 μM
Procedure: A confluent monolayer of the indicated cells was incubated with the appropriate treatment for 30 minutes at 37 degrees. Cells were lysed in a modified, Tris-free NP40 buffer (30 mM HEPES pH 7.4, 150 mM NaCl, and 1% NP40) without protease inhibitors. Protein lysate was quantified according to standard BCA assay (Pierce) and fifty micrograms of each sample was treated with 0.1 mM DSS crosslinking agent (Thermo Scientific, #21658) for 30 minutes at room temperature; the reaction was quenched by the addition of Tris-HCl pH 7.2 to a final concentration of 50 mM for 15 minutes. Crosslinked samples were analyzed by Western blot as described above, using the anti-2A primary antibody for detection.

[3] = test system: NIH-3T3 cells expressing RIPK3^ΔC-2xFv; assay: AP1-induced RIPK3 oligomerization cell death, IncuCyte imaging; settings: zVAD 50 μM, Nec1 30 μM
Text: (§1) Consequently, two Fv domains were attached to the C-terminus of RIPK3, creating a RIPK3-2xFv construct, with the goal of promoting AP1-induced crosslinking and oligomerization independent of the RHIM domain. See, FIG. 12A. […] Compare, FIGS. 16A and 15A, respectively. […] Cells expressing this RHIM-deficient RIPK3^ΔC-2xFv construct were nonresponsive to TNF+zVAD, previously reported to be dependent on RIPK1 RHIM/RIPK3 RHIM interactions. See, FIG. 13G. […] See, FIG. 16C and FIG. 16D, respectively. […] See, FIG. 16E. […] See, FIG. 16F.
(§2) Cell death assays were carried out using a 2-color IncuCyte Zoom in-incubator imaging system (Essen Biosciences.) Briefly, this system allows fully automated imaging of cells at set intervals in phase contrast as well as both red and green fluorescent channels. Cell death assays were carried out by treating cells with death-inducing compounds in 24 well tissue culture vessels (100,000 cells/well), in the presence of 100 nM of the cell-impermeable DNA binding fluorescent dyes Sytox Green (Life Technologies 57020) or Yoyo-3 (Y3606), which are excluded from healthy cells but rapidly enter dying cells upon membrane permeabilization, in a manner analogous to propidium iodide.
(§3) Resulting images were analyzed using the software package supplied with the IncuCyte imager, which allows precise analysis of the number of Sytox Green or Yoyo-3 positive cells present in each image. For each experiment, a minimum of three separate wells were treated with each experimental condition, and a minimum of 4 image fields were assessed per well. Percent cell death was calculated by treating a minimum of three distinct wells in each experiment with 100 nM of the cell permeable fluorescent dye Syto Green (S7559), which allows quantification of the total number of cells present in each field. Dead cell events acquired via Sytox Green or Yoyo-3 staining were divided by this total cell number to yield percent cell death at each timepoint. Error bars represent standard deviation from the mean of a minimum of three independent wells. Each result depicted is representative of at least 4 distinct experiments, each of which contained at least 3 technical replicates.

[4] = test system: NIH-3T3 cells expressing RIPK3-2xFv; assay: as above; settings: AP1; zVAD 50 μM, Nec1 30 μM
Text: as §1, §2, §3

CN1C(=O)C(Cc2c[nH]c3ccccc23)NC1=S (centres unmarked) [necrostatin-1, Necrostatin-1]
effect of inhibitor on association of RIPK1 and caspase-8 with the RIPK3 complex [1]: eliminated formation of stable RIPK1- and caspase-8 containing complexes
effect of inhibitor on RIPK3 complexes following RIPK3-1xFv dimerization [2]: diminished the appearance of these complexes
effect of inhibitor on magnitude or kinetics of cell death [3]: did not alter magnitude or kinetics of cell death
effect of inhibitor on magnitude or kinetics of cell death [4]: did not alter magnitude or kinetics of cell death

COC(=O)C[C@H](NC(=O)[C@H](C)NC(=O)[C@@H](NC(=O)OCc1ccccc1)C(C)C)C(=O)CF [zVAD] (Cbz-Val-Ala-Asp(OMe)-CH2F)
effect of inhibitor on association of RIPK1 and caspase-8 with the RIPK3 complex [1]: increased association of these proteins
effect of inhibitor on RIPK3 complexes following RIPK3-1xFv dimerization [2]: increased shift of RIPK3 into higher molecular weight complexes
effect of inhibitor on magnitude or kinetics of cell death [3]: did not alter magnitude or kinetics of cell death
effect of inhibitor on magnitude or kinetics of cell death [4]: did not alter magnitude or kinetics of cell death
